Measurements published in patent publication US9975846B2, “Multivalent compounds for use in the treatment and prevention of brain damage” (MEDICORTEX FINLAND OY, priority 2014, dated 2018).

Tests used:
[1] = tested on: MPTP model; experiment: Modified MPTP mouse model: dopaminergic system protection and behavioral skills; assay type: in vivo, mice; details: MPTP 4 x 10 mg/kg i.p. Day 1; s.c. three times a week Day 2 to Day 21; rotarod, pole, social recognition tests
Description: In this administration scheme, mice are injected i.p. four times with a MPTP dose of 10 mg/kg, two hours apart, on Day 1. Each test compound, control and vehicle are administered s.c. three times a week from Day 2 until Day 21. The present compounds are administered either alone or in combination with a non-steroidal anti-inflammatory drug, antioxidant, and/or metal ions chelate. One week prior to the MPTP dosing, the mice are trained for a rotarod performance test for three days. The rotarod test is then repeated four times during the course of the experiment. Motor performance and coordination is also tested by a pole test. Social recognition test is conducted once on the last days of the experiment.

[2] = tested on: rat model of experimental closed head injury; experiment: Rat model of experimental closed head injury: behaviour, brain edema, lesion volume, inflammatory markers; assay type: in vivo; details: oral 6 h post-injury
Description: A rat model of experimental closed head injury disclosed by Bilgen et al. (Neurorehabil. Neural Repair, 2005, 19:219-226) with some modifications is employed for testing the effect of the present compounds on behaviour, brain edema, lesion volume, and inflammatory markers after a head trauma.
Each test compound, control compound, or vehicle is administered orally 6 h post-injury.
In vivo T2 weighted magnetic resonance imaging (MRI) is performed on the animals to depict the pathologies, including lesion size, tissue viability, and brain edema, of the resulting injuries in the corresponding neuronal tissues at 24 h and day 3.
Behavioral tests, including a seven-point neuroscore test modified from Zausinger et al. (Brain Res., 2000, 863:94-105), are used to assess motor and behavioural deficits by a blinded investigator at baseline and on days 1, 3, 7, 14, and 28 post-injury. Additionally, sensimotor recovery of forelimb and hindlimb responses to tactile and proprioceptive stimulation is evaluated by a limb-placing test essentially as described by Jolkkonen et al. in Restor. Neurol. Neurosci., 2000, 17:211-216.
After euthanization, histological evaluation of the injury in the cortex and hippocampus is performed. Additionally, inflammatory markers, astrocytic and microglial activation is evaluated by immunohistochemistry.

[3] = tested on: MPTP mouse model of Parkinson's disease; experiment: MPTP mouse model of Parkinson's disease: dopaminergic system protection; assay type: in vivo; details: MPTP 4 x 15 mg/kg i.p.; daily i.p. for 14 days from Day 0; striatal tissue by HPLC
Description: In the model, depletion of striatal dopamine (DA) and dopaminergic neuronal death in the substantia nigra (SN) is caused by systemic administration of MPTP (1-methyl-4-phenyl-1,2,3,6-tetrahydropyridine). To be more specific, MPTP is administered twice daily, 3 hours apart, by i.p. injections on Day 0 and Day 1. Each dose is 15 mg/kg, the total dose being 60 mg/kg.
Each test compound, control or vehicle is administered by daily i.p. injections for 14 days starting from Day 0.
After euthanization on Day 14, blood samples are collected by cardiac punctures and stored at −80° C. for further analysis. Blood is removed from the brains by transcardial perfusion with saline. Posterior brain blocks containing the SN are then removed and processed for cryosectioning, while striata are dissected in toto, pooled, weighted, snap-frozen in liquid nitrogen, and stored at −80° C.
20-μm-thick coronal cryosections are analysed immunohistochemically for the expression of tyrosine hydroxylase (TH), a rate-limiting enzyme in dopamine synthesis by counting the number of TH-positive neurons bilaterally in the SN.
Striatal tissue samples are analysed for DA and its two metabolites, 3,4-dihydroxyphenylacetic acid (DOPAC) and homovanillic acid (HVA), levels by HPLC.

[4] = tested on: mouse model of experimental closed head injury; experiment: Mouse model of experimental closed head injury: cognitive rehabilitation after traumatic brain injury; assay type: in vivo; details: closed head injury by weight-drop; s.c. from day 8 onwards, three times a week; behavioral tests at baseline, day 7, day 30
Description: A mouse model of experimental closed head injury disclosed by Yatsiv et al. in FASEB J. 2005, 19:1701-1703 is employed for testing the efficacy of the present compounds to improve functional recovery after a head trauma caused by a weight-drop onto an exposed skull.
Severity of the injury is assessed according to the Neurological Severity Score disclosed by Beni-Adani et al. (J. Pharmacol. Exp. Ther. 2001, 296:57-63) on the basis of ten individual tasks reflecting motor function, alertness, and behaviour.
Each test compound, control compound, or vehicle is administered subcutaneously from day 8 onwards, three times a week.
Behavioral tests, including open field (OF), elevated plus maze (EMP), and social recognition tests are carried out at baseline, on day 7, and day 30.
After euthanization, plasma levels of cytokines and TBI-specific biomarkers, such as S100B, are determined and the brains are evaluated histologically.

[5] = T2 weighted MRI at 24 h and day 3

## CCCCC/C=C\C/C=C\CCCCCCCC(=O)Nc1ccc(OC(=O)c2cccc(O)c2O)c(OCCOc2ccccc2OC(=O)c2cccc(O)c2O)c1 [TBI-446, 2-(2-(2-((2,3-dihydroxybenzoyl)oxy)-5-((9Z,12Z)-octadeca-9,12-dienamido)phenoxy)ethoxy)phenyl 2,3-dihydroxybenzoate]
[1]
  behavioural recovery: behavioural recovery
[2]; [5]
  brain edema after closed head injury: decreased
  lesion volume after closed head injury: decreased
[2]; immunohistochemistry after euthanization
  levels of inflammatory markers: decreased
[3]
  protection of the dopaminergic system from reduction of striatal DA levels caused by MPTP: protect the dopaminergic system from the reduction of the DA levels
[4]
  cognitive rehabilitation of the mice: improved cognitive rehabilitation
